# Assay results as given in ChEMBL document CHEMBL1201862, “PubChem BioAssay data set” (2004).
# Calls of active or inactive are those of the source.
# Experiments:
# Cytochrome P450 2C19 = Cytochrome P450 2C19 (Homo sapiens, UniProt P33261); test: Cytochrome panel assay with activity outcomes. Panel member name: p450-cyp2c19 Compounds with AC50 equal or less than 10 uM are considered active; type: functional
# Streptokinase A = target: T1, Streptokinase A (Streptococcus pyogenes serotype M1, UniProt P10520); test: S. pyogenes streptokinase expression inhibitors, potency, dose response, plasminogen activation absorbance, OD405 (AID 1914); type: functional, Streptococcus pyogenes M1 GAS;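 further: secreted streptokinase activity via plasminogen activation per viability signal from cell pellet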
# T1 sequence (P10520 whole entry): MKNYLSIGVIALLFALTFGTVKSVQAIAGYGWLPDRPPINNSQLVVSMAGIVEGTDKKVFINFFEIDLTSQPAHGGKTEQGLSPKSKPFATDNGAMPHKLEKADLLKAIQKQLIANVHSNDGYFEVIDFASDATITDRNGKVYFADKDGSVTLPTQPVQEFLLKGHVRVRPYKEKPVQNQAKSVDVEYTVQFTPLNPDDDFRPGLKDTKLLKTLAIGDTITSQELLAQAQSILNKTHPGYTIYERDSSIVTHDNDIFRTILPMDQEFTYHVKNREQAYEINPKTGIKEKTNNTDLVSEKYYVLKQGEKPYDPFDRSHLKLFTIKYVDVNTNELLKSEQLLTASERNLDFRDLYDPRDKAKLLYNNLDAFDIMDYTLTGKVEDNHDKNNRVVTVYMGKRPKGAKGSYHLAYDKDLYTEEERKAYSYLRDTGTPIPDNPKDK
# Streptococcus = test: Group A Streptococcus viability loss, dose response, counter-screen for streptokinase expression inhibitor project, luminescence, BacTiterGlo (AID 1915); type: functional, organism-based;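 further: potency for reduction of bacterial viability or growth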
# H4 = test: Luminescence Cell-Based Dose Response HTS to Identify Activators of 5'UTR Stem-Loop Driven Prion Protein mRNA Translation in H4 Neuroglioblastoma Cells. [Related pubchem assays: 1829 (Project Summary), 1814 (Primary HTS)]; type: functional; settings: Homo sapiens
# [1] = Luminescence Cell-Based Dose Response HTS to Identify Activators of Luciferase Translation or Activity in H4 […] Cells. [Related pubchem assays: 1829 (Project Summary), 1814 (Primary HTS)]; type: functional
# [2] = inhibitors of intracellular T. cruzi replication, confirmation, NIH3T3 host cells, beta-gal luminescence (AID 2044); type: functional, cell-based;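 further: intracellular parasites grown in NIH/3T3 mouse fibroblasts as host cells; luminescent beta-galactosidase reporter signal from transgenic T. cruzi replicating inside host cells; inhibitors lower the luminescence signal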
# [3] = cytotoxicity toward NIH3T3 fibroblasts, dose response, counter-screen, cell-based, ATP luminescence, mouse fibroblasts (AID 2010); type: functional;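 further: cells exposed to compound for about 90 hours before reading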
# Cytochrome P450 2D6 = Cytochrome P450 2D6 (Homo sapiens, UniProt P10635);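 further: CYP2D6 member of a cytochrome P450 panel assay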
# Sequence of Cytochrome P450 2D6 (P10635 whole entry): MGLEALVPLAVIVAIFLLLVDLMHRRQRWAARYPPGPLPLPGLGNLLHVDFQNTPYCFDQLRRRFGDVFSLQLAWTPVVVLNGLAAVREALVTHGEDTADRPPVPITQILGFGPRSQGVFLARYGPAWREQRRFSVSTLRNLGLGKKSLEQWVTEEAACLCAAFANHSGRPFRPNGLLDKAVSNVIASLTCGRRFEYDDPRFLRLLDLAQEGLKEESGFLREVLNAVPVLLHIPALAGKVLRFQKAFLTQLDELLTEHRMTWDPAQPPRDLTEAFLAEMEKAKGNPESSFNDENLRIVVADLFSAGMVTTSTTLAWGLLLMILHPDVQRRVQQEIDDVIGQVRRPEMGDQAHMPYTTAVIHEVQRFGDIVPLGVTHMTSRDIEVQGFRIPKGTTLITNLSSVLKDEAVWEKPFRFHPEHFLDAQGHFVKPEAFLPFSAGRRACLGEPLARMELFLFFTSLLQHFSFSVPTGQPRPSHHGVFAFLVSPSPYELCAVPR
# Cytochrome P450 3A4 = Cytochrome P450 3A4 (Homo sapiens, UniProt P08684);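 further: CYP3A4 tested as one member of a cytochrome P450 panel screen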
# Sequence of Cytochrome P450 3A4 (P08684 whole entry): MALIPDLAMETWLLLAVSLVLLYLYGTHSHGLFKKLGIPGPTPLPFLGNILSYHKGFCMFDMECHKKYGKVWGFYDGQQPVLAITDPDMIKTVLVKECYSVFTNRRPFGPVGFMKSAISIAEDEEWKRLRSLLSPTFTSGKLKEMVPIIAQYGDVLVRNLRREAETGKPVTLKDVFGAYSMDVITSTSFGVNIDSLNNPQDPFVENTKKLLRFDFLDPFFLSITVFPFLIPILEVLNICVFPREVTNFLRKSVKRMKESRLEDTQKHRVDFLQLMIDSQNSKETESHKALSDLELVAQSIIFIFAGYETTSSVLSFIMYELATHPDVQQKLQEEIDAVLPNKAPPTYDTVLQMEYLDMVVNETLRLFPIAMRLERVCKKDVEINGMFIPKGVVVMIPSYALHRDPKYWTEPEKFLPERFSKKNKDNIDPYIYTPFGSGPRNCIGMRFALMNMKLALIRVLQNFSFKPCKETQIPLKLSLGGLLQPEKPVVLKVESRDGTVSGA
# [4] = system: Streptococcus sp. 'group A'; test: growth inhibition of control SK(-) GAS strain, dose response, counter-screen for streptokinase expression inhibitor project, luminescence, kanamycin, BacTiterGlo, confirmation (AID 1900); type: functional, organism-based
# Sequence of Cytochrome P450 2C19 (P33261 whole entry): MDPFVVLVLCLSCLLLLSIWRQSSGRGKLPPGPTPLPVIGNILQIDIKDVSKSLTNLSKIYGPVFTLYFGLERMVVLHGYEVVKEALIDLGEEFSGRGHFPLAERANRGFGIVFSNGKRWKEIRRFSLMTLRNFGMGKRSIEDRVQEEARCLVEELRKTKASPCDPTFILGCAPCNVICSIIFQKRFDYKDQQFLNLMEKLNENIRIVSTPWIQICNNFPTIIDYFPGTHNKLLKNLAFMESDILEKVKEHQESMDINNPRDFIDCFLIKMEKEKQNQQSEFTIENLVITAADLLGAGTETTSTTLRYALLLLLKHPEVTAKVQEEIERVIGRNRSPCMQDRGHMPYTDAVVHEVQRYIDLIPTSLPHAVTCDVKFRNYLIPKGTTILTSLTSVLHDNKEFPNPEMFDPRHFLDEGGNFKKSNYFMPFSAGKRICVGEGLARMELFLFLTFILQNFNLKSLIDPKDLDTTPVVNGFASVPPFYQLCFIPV
structure (smiles),measurement,setting,value
O=c1c(-c2ccc(F)cc2)nc2cnc(N3CCNCC3)nc2n1C1CC1,AC50,Cytochrome P450 2C19; read-out: AC50,39.8 µM (inconclusive)
C[C@H]1CC[C@@]2(NC1)O[C@@H]1C[C@H]3[C@@H]4CC[C@@H]5C[C@@H](O)CC[C@@]5(C)[C@@H]4CC[C@]3(C)[C@@H]1[C@@H]2C,AC50,Cytochrome P450 2C19,inconclusive
COc1ccc(C(CNC(=O)c2cccc(S(=O)(=O)Nc3ccccc3Cl)c2)N2CCOCC2)cc1 (centres undefined),EC50,Streptokinase A,> 150 µM (not active)
same,EC50,Streptococcus,104 µM (active)
c1ccc(COc2ccc(-c3csnn3)cc2)cc1,EC50,H4,1.64 µM (active)
same,EC50,[1],0.11 µM (active)
CCN1CCN(c2ccc(S(=O)(=O)N3CCOCC3)cc2NC(=O)c2ccc(Cl)s2)CC1,EC50,[2],0.588 µM (active)
same,EC50,[3],> 30 µM (not active)
CCOC(=O)CC(NC(=O)c1cccs1)c1ccc(OCC)cc1 (centres undefined),AC50,Cytochrome P450 2D6,14.1 µM (inconclusive)
COCCn1c(=O)c(-c2cccs2)nc2cnc(Oc3ccc(OC)cc3)nc21,AC50,Cytochrome P450 2C19; read-out: AC50,15.8 µM (inconclusive)
Cc1sc2c(c1C)c(=O)n(-c1ccccc1)c1nnc(C)n21,AC50,Cytochrome P450 2C19; read-out: AC50,8.91 µM (inconclusive)
OC(COCC1COc2ccccc2O1)CN1CCc2ccccc2C1 (centres undefined),AC50,Cytochrome P450 3A4,17.8 µM (inconclusive)
COC(=O)Cc1c[nH]c2cccc(OCC(O)CN(Cc3ccc([N+](=O)[O-])cc3)C(C)(C)C)c12 (centres undefined),EC50,[2],2.83 µM (active)
same,EC50,[3],> 60 µM (not active)
COc1ccccc1CNc1ncncc1-c1ccc(C(=O)N(C)C)cc1,AC50,Cytochrome P450 2D6,39.8 µM (inconclusive)
O=[N+]([O-])c1cccc(-c2nc(-c3ccccc3)c(-c3cccs3)[nH]2)c1,AC50,Cytochrome P450 2D6,4.47 µM (inconclusive)
Cn1c(=O)c(C(=O)NNC(=O)c2ccccc2Br)c(O)c2ccccc21,EC50,[4],4.72 µM (active)
same,EC50,Streptokinase A,> 150 µM (not active)
same,EC50,Streptococcus,18.7 µM (active)
CCOC(=O)c1c2c(n3ccccc13)C(=O)c1ccccc1C2=O,AC50,Cytochrome P450 3A4,3.16 µM (inconclusive)
Cc1ccc(-c2onc3ccc(C4OCCO4)cc23)cc1,EC50,H4,25 µM (active)
same,EC50,[1],28.4 µM (active)
CN(C)/C=N/c1cnc(C(=O)c2ccc(Cl)cc2)n1C,EC50,H4,0.52 µM (active)
O=C(CSc1cccc[n+]1[O-])c1cc2ccccc2o1,EC50,[2],11.3 µM (active)
same,EC50,[3],> 60 µM (not active)
COc1ccc(/C=C2\Sc3ccc(C(=O)N4CCCC4)cc3N(C)C2=O)cc1OC,EC50,[4],0.555 µM (active)
same,EC50,Streptokinase A,> 150 µM (not active)
same,EC50,Streptococcus,8.27 µM (active)
c1ccc(COc2ccccc2CNCc2cccnc2)cc1,EC50,[2],8.11 µM (active)
same,EC50,[3],> 60 µM (not active)
Oc1ccc(Cc2cc(Cl)cc(Cl)c2O)cc1Cl,AC50,Cytochrome P450 2D6,7.94 µM (inconclusive)
same,AC50,Cytochrome P450 3A4,3.98 µM (inconclusive)
O=S(=O)(Nc1ccc(N=Nc2ccc(O)c3ccccc23)cc1)c1ccccc1,EC50,[4],7.71 µM (active)
same,EC50,Streptokinase A,18.7 µM (active)
same,EC50,Streptococcus,41.5 µM (active)
CCCCN1C(=O)NC(=O)/C(=C(\C)Nc2ccc(OCC)cc2)C1=O,EC50,[4],8.66 µM (active)
same,EC50,Streptokinase A,> 150 µM (not active)
same,EC50,Streptococcus,21.5 µM (active)
CC(C)N1CCc2c(sc(NC(=O)CCS(=O)(=O)c3ccccc3)c2C#N)C1,EC50,[4],> 150 µM (not active)
same,EC50,Streptokinase A,> 150 µM (not active)
same,EC50,Streptococcus,> 150 µM (not active)
Cc1ccc(C(=O)N(C)c2ccc(OCC(=O)N3c4ccc(C)cc4C4CN(C)CCC43)cc2)cc1 (centres undefined),EC50,[2],0.527 µM (active)
same,EC50,[3],> 60 µM (not active)
Cc1ccc(C(=N)NOC(=O)CSc2ccccc2)cc1,EC50,[1],0.514 µM (active)
CCOC(=O)C1CCCN(c2ncnc3c2cnn3-c2cccc(C)c2)C1 (centres undefined),AC50,Cytochrome P450 3A4,28.2 µM (inconclusive)
same,AC50,Cytochrome P450 2C19; read-out: AC50,20 µM (inconclusive)
CN(Cc1ccccc1)C(=O)C1CCCN(Cc2cccc(Cl)c2)C1 (centres undefined),EC50,[2],0.11 µM (active)
same,EC50,[3],> 60 µM (not active)
COc1ccc(C(=O)NCC(c2ccc(F)cc2)N2CCOCC2)cc1S(=O)(=O)N1CCCC1 (centres undefined),AC50,Cytochrome P450 2D6,15.8 µM (inconclusive)
C=CCNC(=O)c1ccccc1NC(=O)c1ccc(Cl)c(S(=O)(=O)Nc2cc(C)ccc2C)c1,EC50,[4],24.8 µM (active)
same,EC50,Streptokinase A,41.7 µM (active)
same,EC50,Streptococcus,> 150 µM (not active)
COc1ccc(-n2c(=O)c(C)nc3cnc(N(C)C)nc32)cc1,AC50,Cytochrome P450 3A4,20 µM (inconclusive)
COC(=O)Cc1c(OC)ccn(CCc2c[nH]c3ccccc23)c1=O,EC50,H4,> 120 µM (not active)
COc1ccc(-c2ccc(C(=S)N3CCN(C(C)=O)CC3)o2)cc1,AC50,Cytochrome P450 2D6,28.2 µM (inconclusive)
COc1cc([N+](=O)[O-])c(N2CCOCC2)c([N+](=O)[O-])c1OC,EC50,[2],7.53 µM (active)
same,EC50,[3],> 60 µM (not active)
Cc1cc2nc(CCN(Cc3cccnc3)C(S)=Nc3ccc(F)cc3)[nH]c2cc1C,EC50,[2],0.844 µM (active)
same,EC50,[3],> 30 µM (not active)
c1ccc(CN2CCN(c3nc4ccccc4c4ccccc34)CC2)cc1,EC50,[4],15.9 µM (active)
same,EC50,Streptokinase A,14.9 µM (active)
same,EC50,Streptococcus,> 150 µM (not active)
Cc1[nH]c2ccccc2c1C(=O)CSc1nc2ccccc2c(=O)n1CCCN1CCOCC1,EC50,H4,> 120 µM (not active)
same,EC50,[1],> 120 µM (not active)
CNc1ncnc2ccc(-c3ccccc3CN(C)C)cc12,AC50,Cytochrome P450 2C19; read-out: AC50,20 µM (inconclusive)
CCOc1ccc(Nc2nc(N3CCCCC3)nc(N3CCCCC3)n2)cc1,EC50,[4],0.648 µM (active)
same,EC50,Streptokinase A,> 150 µM (not active)
same,EC50,Streptococcus,54.1 µM (active)
OC(COCCC12CC3CC(CC(C3)C1)C2)CN1CCCCC1 (centres undefined),EC50,[2],0.228 µM (active)
same,EC50,[3],> 60 µM (not active)
COCCNc1nc(-c2c(C)noc2C)nc2ccccc12,AC50,Cytochrome P450 3A4,15.8 µM (inconclusive)
CCSC(=N)Nc1ccc(C(F)(F)F)cc1,AC50,Cytochrome P450 3A4,39.8 µM (inconclusive)
same,AC50,Cytochrome P450 2C19; read-out: AC50,20 µM (inconclusive)
O=S(=O)(Cc1cc(Sc2ccc(Cl)cc2)nc(-c2ccccc2)n1)c1ccccc1,EC50,[2],2.93 µM (active)
same,EC50,[3],> 60 µM (not active)
CC(CCc1ccccc1)N1CCN(Cc2ccccc2)CC1 (centres undefined),EC50,[2],0.101 µM (active)
same,EC50,[3],10.2 µM (active)
O=c1c(-c2ccc(Cl)cc2)nc2cnc(N3CCNCC3)nc2n1Cc1cccs1,AC50,Cytochrome P450 2C19; read-out: AC50,25.1 µM (inconclusive)
COC(=O)C1CCN(CC(=O)Nc2cc(Cl)ccc2OC)CC1,EC50,[2],4.18 µM (active)
same,EC50,[3],> 30 µM (not active)
O=C(CCc1nnc(CCCCc2ccccc2)o1)NCCc1cccnc1,EC50,[2],2.27 µM (active)
same,EC50,[3],> 60 µM (not active)
CN(C)c1ccc(-c2cncnc2NCc2ccccc2)cc1,AC50,Cytochrome P450 2D6,39.8 µM (inconclusive)
CC(=O)Nc1ccc(S(=O)(=O)N2CCC(N(C)CCC(C)C)CC2)cc1,AC50,Cytochrome P450 2C19; read-out: AC50,25.1 µM (inconclusive)
O=C(NC(=S)Nc1ccc(N2CCOCC2)c(Cl)c1)c1cccs1,EC50,[4],11 µM (active)
same,EC50,Streptokinase A,> 150 µM (not active)
same,EC50,Streptococcus,15.8 µM (active)
CNC(=O)c1sc(SC)cc1-c1ccc(Cl)cc1,AC50,Cytochrome P450 2D6,25.1 µM (inconclusive)
CCc1ccc(Oc2nc([N+](=O)[O-])nn2C)cc1,EC50,[2],0.438 µM (active)
same,EC50,[3],> 30 µM (not active)
C=C(C)CNC(=S)NNC(=O)CCn1c2ccc(Cl)cc2c2cc(Cl)ccc21,EC50,Streptokinase A,> 150 µM (not active)
Cc1ccc(CN(C)CCc2ccccn2)cc1,EC50,[2],0.309 µM (active)
same,EC50,[3],> 60 µM (not active)
CCC(C)C(=O)N1CCCC(c2nc(-c3cccs3)no2)C1 (centres undefined),EC50,H4,71.6 µM (active)
same,EC50,[1],> 120 µM (not active)
Fc1ccc(Br)cc1C1C=C(c2ccc(Br)s2)Nc2ncnn21 (centres undefined),EC50,[4],4.65 µM (active)
same,EC50,Streptokinase A,> 150 µM (not active)
same,EC50,Streptococcus,24.3 µM (active)
CC(C)C[C@@H](N)C(=O)Nc1ccc2ccccc2c1,AC50,Cytochrome P450 2D6,3.16 µM (inconclusive)
same,AC50,Cytochrome P450 3A4,2.51 µM (inconclusive)
same,AC50,Cytochrome P450 2C19; read-out: AC50,2.51 µM (inconclusive)
COc1ccc(CN(C)S(=O)(=O)c2ccc3c(c2)OCCO3)cc1,EC50,[4],> 150 µM (not active)
same,EC50,Streptokinase A,> 150 µM (not active)
same,EC50,Streptococcus,> 150 µM (not active)
